From patent US11046699B2, “Pyrazolo-pyrimidin-amino-cycloalkyl compounds and their therapeutic uses” (RAPT THERAPEUTICS, INC., priority 2018, dated 2021)
pIC50: −log10 of the molar value. Counter-ions that a name gives are not always drawn. Like-named read-outs stand apart in the source and are kept apart here.

Biological target: GCN2 (Homo sapiens, UniProt Q9P2K8)
Test: GCN2 enzymatic endpoint assay: phosphorylation of GFP-eIF2α measured by TR-FRET (Lanthascreen)
Type: biochemical
Procedure, shortened: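 Read-out is the TR-FRET ratio of acceptor signal at 520 nm to terbium donor at 495 nm, rising with antibody binding to phosphorylated GFP-eIF2α. Endpoint format: 2 μM ATP, 80 nM substrate, 90 minutes at room temperature, EDTA stop.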

[1] = GCN2 biochemical IC50, 4 nM GCN2, 2 μM ATP, 80 nM GFP-eIF2α, 90 min RT, read-out: GCN2 activity
[2] = tested as described in Example 77, compound and/or hydrochloride, dihydrochloride or trifluoroacetic acid salt, read-out: IC 50 Activity

Sequence of GCN2 (Q9P2K8 whole entry): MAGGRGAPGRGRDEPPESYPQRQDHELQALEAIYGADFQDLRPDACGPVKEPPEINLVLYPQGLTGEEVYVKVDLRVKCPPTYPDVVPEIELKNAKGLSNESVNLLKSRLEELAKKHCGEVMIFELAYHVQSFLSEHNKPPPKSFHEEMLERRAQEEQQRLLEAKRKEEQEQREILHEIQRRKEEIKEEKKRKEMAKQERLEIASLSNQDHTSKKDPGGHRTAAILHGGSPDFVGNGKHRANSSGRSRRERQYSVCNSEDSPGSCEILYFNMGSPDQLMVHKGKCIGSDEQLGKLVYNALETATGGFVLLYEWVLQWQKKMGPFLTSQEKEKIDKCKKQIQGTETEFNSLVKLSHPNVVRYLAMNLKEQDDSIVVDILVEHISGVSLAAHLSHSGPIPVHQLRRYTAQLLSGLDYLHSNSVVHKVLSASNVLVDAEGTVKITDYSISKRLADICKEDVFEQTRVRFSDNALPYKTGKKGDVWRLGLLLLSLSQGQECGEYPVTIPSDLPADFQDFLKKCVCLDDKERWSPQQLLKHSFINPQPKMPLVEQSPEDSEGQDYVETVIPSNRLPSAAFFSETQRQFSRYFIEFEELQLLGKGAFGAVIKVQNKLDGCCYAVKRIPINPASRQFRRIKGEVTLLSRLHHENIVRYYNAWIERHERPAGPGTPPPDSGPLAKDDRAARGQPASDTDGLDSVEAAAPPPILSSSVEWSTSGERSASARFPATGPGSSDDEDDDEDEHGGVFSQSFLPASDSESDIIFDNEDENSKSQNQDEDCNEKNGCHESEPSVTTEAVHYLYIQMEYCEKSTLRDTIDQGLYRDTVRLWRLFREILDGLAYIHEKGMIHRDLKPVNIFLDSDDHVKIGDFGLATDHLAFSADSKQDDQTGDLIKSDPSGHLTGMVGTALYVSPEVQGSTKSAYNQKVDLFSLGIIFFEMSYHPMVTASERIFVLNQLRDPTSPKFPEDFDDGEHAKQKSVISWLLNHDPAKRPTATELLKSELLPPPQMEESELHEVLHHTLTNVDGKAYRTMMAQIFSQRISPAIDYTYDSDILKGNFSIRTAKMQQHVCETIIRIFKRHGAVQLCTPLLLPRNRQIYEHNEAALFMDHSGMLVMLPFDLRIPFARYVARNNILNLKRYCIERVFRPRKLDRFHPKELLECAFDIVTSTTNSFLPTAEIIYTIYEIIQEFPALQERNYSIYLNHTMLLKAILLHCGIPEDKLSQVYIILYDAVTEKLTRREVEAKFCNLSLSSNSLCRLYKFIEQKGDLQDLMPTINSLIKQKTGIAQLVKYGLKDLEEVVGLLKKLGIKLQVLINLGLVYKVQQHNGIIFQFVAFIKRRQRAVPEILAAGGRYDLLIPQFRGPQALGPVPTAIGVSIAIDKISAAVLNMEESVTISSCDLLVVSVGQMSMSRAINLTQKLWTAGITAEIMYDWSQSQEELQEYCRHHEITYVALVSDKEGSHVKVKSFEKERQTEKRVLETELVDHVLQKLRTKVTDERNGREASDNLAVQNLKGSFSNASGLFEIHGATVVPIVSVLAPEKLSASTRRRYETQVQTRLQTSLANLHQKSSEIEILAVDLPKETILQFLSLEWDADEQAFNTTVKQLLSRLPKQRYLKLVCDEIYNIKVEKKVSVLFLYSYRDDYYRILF

pIC50 [1] | pIC50 [2] | SMILES
> 7.60 |  | CNC(=O)[C@]1(C)CC[C@@H](Nc2ncc3c(Br)nn(-c4ccc(-c5nnc(C)s5)c(C#N)c4)c3n2)C1 [Example 69, (1R,3R)-3-((3-bromo-1-(3-cyano-4-(5-methyl-1,3,4-thiadiazol-2-yl)phenyl)-1H-pyrazolo[3,4-d]pyrimidin-6-yl)amino)-N,1-dimethylcyclopentane-1-carboxamide]
 | 6.70 to 7.60 | CC1(C(=O)NCC(F)F)CC[C@@H](Nc2ncc3c(Br)nn(-c4cc(F)c5ncccc5c4)c3n2)C1 (stereo partly drawn) [(3R)-3-[[3-bromo-1-(8-fluoro-6-quinolyl)pyrazolo[3,4-d]pyrimidin-6-yl]amino]-N-(2,2-difluoroethyl)-1-methyl-cyclopentane-carboxamide]
 | 6.70 to 7.60 | CNC(=O)[C@]1(CCC(F)(F)F)CC[C@@H](Nc2ncc3c(Br)nn(-c4cc(F)c5ncccc5c4)c3n2)C1 [(1S,3R)-3-[[3-bromo-1-(8-fluoro-6-quinolyl)pyrazolo[3,4-d]pyrimidin-6-yl]amino]-N-methyl-1-(3,3,3-trifluoropropyl)cyclopentane-carboxamide]
 | > 7.60 | N#Cc1cc(-n2nc(Br)c3cnc(N[C@@H]4CC[C@@H](C(=O)N5CC(F)C5)C4)nc32)cc2cccnc12 [6-(3-bromo-6-(((1R,3R)-3-(3-fluoroazetidine-1-carbonyl)cyclopentyl)amino)-1H-pyrazolo [3,4-d]pyrimidin-1-yl)quinoline-8-carbonitrile]
 | 6.70 to 7.60 | CNC(=O)[C@]1(C)CC[C@@H](Nc2ncc3c(Br)nn(-c4cnc5c(CCN)cccc5c4)c3n2)C1 [(1R,3R)-3-[[1-[8-(2-aminoethyl)-3-quinolyl]-3-bromo-pyrazolo[3,4-d]pyrimidin-6-yl]amino]-N,1-dimethyl-cyclopentane-carboxamide]
 | 6.70 to 7.60 | CNC(=O)[C@]1(C)CC[C@@H](Nc2ncc3c(Br)nn(-c4ccc(-c5ncco5)c(CNS(C)(=O)=O)c4)c3n2)C1 [(1R,3R)-3-[[3-bromo-1-[3-(methane-sulfonamidomethyl)-4-oxazol-2-yl-phenyl]pyrazolo[3,4-d]pyrimidin-6-yl]amino]-N,1-dimethyl-cyclopentanecarboxamide]
 | 6.70 to 7.60 | O=C(NC[C@H]1COCCN1)[C@@H]1CC[C@@H](Nc2ncc3c(Br)nn(-c4cc(F)c5ncccc5c4)c3n2)C1
 | 6.70 to 7.60 | C[C@@]1(C(=O)N2CCN3C(=O)CC[C@@H]3C2)CC[C@@H](Nc2ncc3c(Br)nn(-c4cc(F)c5ncccc5c4)c3n2)C1
 | 6.70 to 7.60 | CNC(=O)[C@]1(C)CC[C@@H](Nc2ncc3c(Br)nn(-c4ccn5c(=O)ccnc5c4)c3n2)C1 [(1R,3R)-3-[[3-bromo-1-(4-oxopyrido[1,2-a]pyrimidin-8-yl)pyrazolo[3,4-d]pyrimidin-6-yl]amino]-N,1-dimethyl-cyclopentane-carboxamide]
 | 6.70 to 7.60 | CNC(=O)[C@]1(C)CC[C@@H](Nc2ncc3c(Br)nn(-c4cc(F)cc(C(N)=O)c4)c3n2)C1 [3-[3-bromo-6-[[(1R,3R)-3-methyl-3-(methylcarbamoyl)cyclopentyl]amino]pyrazolo[3,4-d]pyrimidin-1-yl]-5-fluoro-benzamide]
 | 6.70 to 7.60 | CNC(=O)[C@]1(C)CC[C@@H](Nc2ncc3c(Br)nn(-c4cc(C#N)cc(OC5CNC5)c4)c3n2)C1 [(1R,3R)-3-[[1-[3-(azetidin-3-yloxy)-5-cyano-phenyl]-3-bromo-pyrazolo[3,4-d]pyrimidin-6-yl]amino]-N,1-dimethyl-cyclopentanecarboxamide]
 | 6.70 to 7.60 | O=C1CC(CNC(=O)[C@@H]2CC[C@@H](Nc3ncc4c(Br)nn(-c5ccc6ncccc6c5)c4n3)C2)CCN1 (stereo partly drawn) [(1R,3R)-3-((3-bromo-1-(quinolin-6-yl)-1H-pyrazolo[3,4-d]pyrimidin-6-yl)amino)-N-((2-oxopiperidin-4-yl)methyl)cyclopentane-1-carboxamide]
 | 6.70 to 7.60 | Cc1nnc(-c2ccc(-n3nc(Br)c4cnc(N[C@@H]5CC[C@@](C)(C(=O)NC6CC6)C5)nc43)cc2)s1 [(1R,3R)-3-[[3-bromo-1-[4-(5-methyl-1,3,4-thiadiazol-2-yl)phenyl]pyrazolo[3,4-d]pyrimidin-6-yl]amino]-N-cyclopropyl-1-methyl-cyclopentanecarboxamide]
 | > 7.60 | CNC(=O)[C@]1(C)CC[C@@H](Nc2ncc3c(Br)nn(-c4cc(CC(C)O)c5ncccc5c4)c3n2)C1 (stereo partly drawn) [(1R,3R)-3-[[3-bromo-1-[8-(2-hydroxy-propyl)-6-quinolyl]pyrazolo[3,4-d]pyrimidin-6-yl]amino]-N,1-dimethyl-cyclopentanecarboxamide]
 | 6.70 to 7.60 | CNC(=O)[C@]1(C)CC[C@@H](Nc2ncc3c(Br)nn(-c4ccc5c(c4)OC(C)C(=O)N5C)c3n2)C1 (stereo partly drawn) [(1R,3R)-3-[[3-bromo-1-(2,4-dimethyl-3-oxo-1,4-benzoxazin-7-yl)pyrazolo [3,4-d]pyrimidin-6-yl]amino]-N,1-dimethyl-cyclopentanecarboxamide]
 | 6.70 to 7.60 | CNC(=O)[C@]1(C)CC[C@@H](Nc2ncc3c(Br)nn(-c4ccc5c(c4)OCC(=O)N5CC#N)c3n2)C1 [(1R,3R)-3-[[3-bromo-1-[4-(cyanomethyl)-3-oxo-1,4-benzoxazin-7-yl]pyrazolo[3,4-d]pyrimidin-6-yl]amino]-N,1-dimethyl-cyclopentanecarboxamide]
 | 6.70 to 7.60 | N#Cc1cc(-n2nc(Br)c3cnc(N[C@@H]4CC[C@@H](C(=O)N5CCN(C(=O)C6CC6)CC5)C4)nc32)cc2cccnc12 [6-(3-bromo-6-(((1R,3R)-3-(4-(cyclopropanecarbonyl)piperazine-1-carbonyl)cyclopentyl)amino)-1H-pyrazolo [3,4-d]pyrimidin-1-yl)quinoline-8-carbonitrile]
 | 6.30 to 6.70 | CNC(=O)[C@@]1(C)CC[C@@H](Nc2ncc3c(Br)nn(-c4ccc5ncccc5c4)c3n2)C1 [(1S,3R)-3-((3-bromo-1-(quinolin-6-yl)-1H-pyrazolo[3,4-d]pyrimidin-6-yl)amino)-N,1-dimethylcyclopentane-1-carboxamide]
6.70 to 7.60 |  | CNC(=O)[C@]1(C)CC[C@@H](Nc2ncc3c(Br)nn(-c4ccc5nc(N6CCC6)ncc5c4)c3n2)C1 [Example 73, (1R,3R)-3-((1-(2-(azetidin-1-yl)quinazolin-6-yl)-3-bromo-1H-pyrazolo[3,4-d]pyrimidin-6-yl)amino)-N,1-dimethylcyclopentane-1-carboxamide]
 | > 7.60 | O=C1OCC[C@]12CC[C@@H](Nc1ncc3c(Br)nn(-c4cc(F)c5ncccc5c4)c3n1)C2 [(5R,7R)-7-((3-bromo-1-(8-fluoroquinolin-6-yl)-1H-pyrazolo[3,4-d]pyrimidin-6-yl)amino)-2-oxaspiro[4.4]nonan-1-one]
 | 6.70 to 7.60 | O=C([C@@H]1CC[C@@H](Nc2ncc3c(Br)nn(-c4ccc5ncccc5c4)c3n2)C1)N1CC2(CCNC2)C1 [((1R,3R)-3-((3-bromo-1-(quinolin-6-yl)-1H-pyrazolo[3,4-d]pyrimidin-6-yl)amino)cyclo-pentyl)(2,6-diazaspiro[3.4]octan-2-yl) methanone]
 | 6.70 to 7.60 | O=C(NCCN1CCOCC1)[C@@H]1CC[C@@H](Nc2ncc3c(Br)nn(-c4ccc5ncccc5c4)c3n2)C1 [(1R,3R)-3-((3-bromo-1-(quinolin-6-yl)-1H-pyrazolo[3,4-d]pyrimidin-6-yl)amino)-N-(2-morpholinoethyl)cyclopentane-1-carboxamide]
6.70 to 7.60 |  | CNC(=O)[C@]1(C)CC[C@@H](Nc2ncc3c(Br)nn(-c4ccc(-c5ncco5)c(CCN(C)C)c4)c3n2)C1 [Example 62, (1R,3R)-3-((3-bromo-1-(3-(2-(dimethylamino)ethyl)-4-(oxazol-2-yl)phenyl)-1H-pyrazolo[3,4-d]pyrimidin-6-yl)amino)-N,1-dimethylcyclopentane-1-carboxamide; 2,2,2-trifluoroacetic acid]
 | 6.70 to 7.60 | O=C([C@@H]1CC[C@@H](Nc2ncc3c(Br)nn(-c4cc(F)c5ncccc5c4)c3n2)C1)N1CCN2CCOC[C@@H]2C1 [((1R,3R)-3-((3-bromo-1-(8-fluoroquinolin-6-yl)-1H-pyrazolo[3,4-d]pyrimidin-6-yl)amino)cyclopentyl)((S)-hexahydropyrazino[2,1-c] [1,4]oxazin-8(1H)-yl)methanone]
 | > 7.60 | CNC(=O)[C@@H]1CC[C@@H](Nc2ncc3c(I)nn(-c4cc(F)c5ncccc5c4)c3n2)C1 [(1R,3R)-3-[[1-(8-fluoro-6-quinolyl)-3-iodo-pyrazolo[3,4-d]pyrimidin-6-yl]amino]-N-methyl-cyclopentanecarboxamide]
 | 6.70 to 7.60 | CNC(=O)[C@]1(C)CC[C@@H](Nc2ncc3c(Br)nn(-c4cc(Cl)cc(OCC(C)O)c4)c3n2)C1 (stereo partly drawn) [(1R,3R)-3-[[3-bromo-1-[3-chloro-5-(2-hydroxypropoxy)phenyl]pyrazolo[3,4-d]pyrimidin-6-yl]amino]-N,1-dimethyl-cyclopentanecarboxamide]
 | 6.70 to 7.60 | CNC(=O)C1(C)CC[C@@H](Nc2ncc3c(Br)nn(-c4cc(CO)cc(C(C)(C)C)c4)c3n2)C1 (stereo partly shown)
> 7.60 |  | CNC(=O)[C@]1(C(C)C)CC[C@@H](Nc2ncc3c(Br)nn(-c4cc(F)c5ncccc5c4)c3n2)C1 [Example 37, (1R,3R)-3-((3-bromo-1-(8-fluoroquinolin-6-yl)-1H-pyrazolo[3,4-d]pyrimidin-6-yl)amino)-1-isopropyl-N-methylcyclopentane-1-carboxamide hydrochloride]
> 7.60 |  | CNC(=O)[C@]1(C)CC[C@@H](Nc2ncc3c(Br)nn(-c4ccc5nnccc5c4)c3n2)C1 [Example 42, (1R,3R)-3-((3-bromo-1-(cinnolin-6-yl)-1H-pyrazolo[3,4-d]pyrimidin-6-yl)amino)-N,1-dimethylcyclopentane-1-carboxamide; 2,2,2-trifluoroacetic acid]

SMILES | pIC50 [1] | pIC50 [2]
CNC(=O)[C@]1(C)CC[C@@H](Nc2ncc3c(Br)nn(-c4cc(C#N)cc(CS(C)(=O)=O)c4)c3n2)C1 |  | 6.70 to 7.60
Cc1nnc(-c2ccc(-n3nc(Br)c4cnc(N[C@@H]5CC[C@@H](NC(=O)C6CNC6)C5)nc43)cc2)s1 |  | 6.70 to 7.60
